Laboratory results reported in patent US20130237415A1 (priority 2010, published 2013).
Read-outs that look alike come from different tables or passages of the source.

Key:
Fusarium graminearum [1] = type: in vivo; details: for % FHB Control* / FHB Area / FHB Area (% of Control) / Observed % FHB Efficacy: spring wheat; for % FHB Control*: Group A, GS 59, 100 gai/ha, relative to inoculated untreated check; for FHB Area / FHB Area (% of Control) / Observed % FHB Efficacy: Group B
Fusarium graminearum [2] = type: in vivo; details: for % DON Reduction: spring wheat, Group A, GS 59, 100 gai/ha, relative to inoculated untreated check; for DON Levels (% of Control) / DON Levels (ppm) / Observed % DON Efficacy: harvested spring wheat grain, Group B
Fusarium verticillioides = details: for F. verticilliodes disease severity (in words): safeners alone at 100 gai/ha
Method: Corn seeds of the Garst hybrid 86C73-3000GT were planted and grown in the greenhouse at 22° C., 12 hours of light/12 hours of dark using an experiment based on a randomized complete block (RCB) design with ten replicates.
Safeners tested were: N-(2-methoxybenzoyl)-4-[(methylaminocarbonyl)amino]benzenesulfonamide, Cyprosulfamide, and Isoxadifen, alone and in combination with Prothioconazole fungicide, were applied at the beginning of tasselling stage (GS 51-55) at rates of 100 gai/ha. Prothioconazole was tested alone at rates of 50, 100, and 200 gai/ha. Prothioconazole was tested in combination with safeners at 100 gai/ha. An additional treatment of Prothioconazole at 50 gai/ha+Isoxadifen at 100 gai/ha was included. All treatments were applied a water volume of 220 L/ha using a track sprayer. The adjuvant X-77 was included in each treatment of maize at a rate of 0.125% v/v. Untreated non-innoculated and inoculated control treatments were included within the treatment list.
Maize was inoculated with Fusarium verticillioides at flowering/silking stage (GS 61-65) by spraying conidia of F. verticillioides on the emerged silk at 1.0×10^6 conidia/mL. Treated plants where then incubated in the dark at 22° C. for 3 days in the dark at 100% R.H., followed by 6 days at 65% R.H. at 12 hour light/dark intervals at 22° C.
Maize was harvested at maturity, the weight of corn seeds per ear was recorded. Fusarium disease severity per maize ear was determined by plating a ten seeds per ear on Fusarium selective agar media. Seeds were surface sterilized with 5% sodium hypochloride for 1 minute followed by washing with sterile water for 1 minute, prior to plating on selective media. After plating, seeds were incubated in the dark at 15° C. for 10 days.

Compound	% FHB Control* (Fusarium graminearum [1])	% DON Reduction (Fusarium graminearum [2])	FHB Area (Fusarium graminearum [1]; GS 65/69, 50 gai/ha)	FHB Area (% of Control) (Fusarium graminearum [1]; GS 65/69, 50 gai/ha)	Observed % FHB Efficacy (Fusarium graminearum [1]; GS 65/69, 50 gai/ha)	FHB Area (Fusarium graminearum [1]; GS 65/69, 100 gai/ha)	FHB Area (% of Control) (Fusarium graminearum [1]; GS 65/69, 100 gai/ha)	Observed % FHB Efficacy (Fusarium graminearum [1]; GS 65/69, 100 gai/ha)	FHB Area (Fusarium graminearum [1]; GS 65/69, 200 gai/ha)	FHB Area (% of Control) (Fusarium graminearum [1]; GS 65/69, 200 gai/ha)	Observed % FHB Efficacy (Fusarium graminearum [1]; GS 65/69, 200 gai/ha)	DON Levels (% of Control) (Fusarium graminearum [2]; GS 65/69, 50 gai/ha)	DON Levels (ppm) (Fusarium graminearum [2]; GS 65/69, 50 gai/ha)	Observed % DON Efficacy (Fusarium graminearum [2]; GS 65/69, 50 gai/ha)	DON Levels (% of Control) (Fusarium graminearum [2]; GS 65/69, 100 gai/ha)	DON Levels (ppm) (Fusarium graminearum [2]; GS 65/69, 100 gai/ha)	Observed % DON Efficacy (Fusarium graminearum [2]; GS 65/69, 100 gai/ha)	DON Levels (% of Control) (Fusarium graminearum [2]; GS 65/69, 200 gai/ha)	DON Levels (ppm) (Fusarium graminearum [2]; GS 65/69, 200 gai/ha)	Observed % DON Efficacy (Fusarium graminearum [2]; GS 65/69, 200 gai/ha)	further results
CCCCCC(C)OC(=O)COc1ccc(Cl)c2cccnc12 (centres unmarked) [Cloqunitocet, 1-methylhexyl[(5-chloro-8-quinolinyl)oxy]acetate]	1%	9%																			
CON(C(=O)c1cn(C)nc1C(F)F)C(C)Cc1c(Cl)cc(Cl)cc1Cl (centres unmarked) [3-difluoromethyl-1-methyl-1H-pyrazole-4-carboxylic acid methoxy-[1-methyl-2-(2,4,6-trichlorophenyl)-ethyl]-amide]			8.3%	13.7%	86.3%	7.5%	12.4%	87.6%	7%	11.5%	88.5%	25.9%	7.084 ppm	74.1%	16.1%	4.388 ppm	83.9%	11.7%	3.187 ppm	88.3%	
O=C(O)C1=NOC(c2ccccc2)(c2ccccc2)C1 [Isoxadifen, 4,5-dihydro-5,5-diphenyl-3-isoxazolecarboxylic acid]	0%	17%				81.3%	133.9%	0.0%							106.6%	29.098 ppm	0.0%				effectiveness of treatment for wheat (in words) (Fusarium graminearum [1]; wheat): Particularly effective; effectiveness of treatment for maize (in words) (Fusarium verticillioides; maize): Particularly effective; F. verticilliodes disease severity (in words) (Fusarium verticillioides; maize): greatly reduced
Prothioconazole			28.1%	46.3%	53.7%	57.5%	94.7%	5.3%	7.3%	12.0%	88.0%	37.6%	10.274 ppm	62.4%	38.3%	10.456 ppm	61.7%	15.8%	4.322 ppm	84.2%	Fusarium verticilliodes disease severity per maize ear (in words) (Fusarium verticillioides; treated versus untreated control maize plants): reduced disease severity
CNC(=O)Nc1ccc(S(=O)(=O)NC(=O)c2ccccc2OC)cc1	7%	0%																			F. verticilliodes disease severity (in words) (Fusarium verticillioides; maize): greatly reduced
